Data reported in the supplement of paper PMC13207355.
Counter-ions that a name gives are not always drawn.

Legend:
Details in all cases: exposure time: 72 h
[1] = system: E28 (patient-derived glioblastoma stem cells of classical subtype); test: surviving fraction (nuclei count normalised to DMSO); higher = more cells surviving (less toxic)
[2] = system: E31 (patient-derived glioblastoma stem cells of proneural subtype); test: as above
[3] = system: E13 (patient-derived glioblastoma stem cells of classical subtype); test: as above
[4] = system: E21 (patient-derived glioblastoma stem cells of mesenchymal subtype); test: as above
[5] = system: FT3469 (normal neural stem cell line); test: as above
[6] = system: E57 (patient-derived glioblastoma stem cells of mesenchymal subtype); test: as above
[7] = system: E34 (patient-derived glioblastoma stem cells of proneural subtype); test: as above
[8] = system: E28; test: phenotypic distance (Euclidean, principal components) from DMSO controls (arbitrary units); higher = stronger morphological change
[9] = system: E31; test: as above
[10] = system: E13; test: as above
[11] = system: E21; test: as above
[12] = system: FT3469; test: as above
[13] = system: E57; test: as above
[14] = system: E34; test: as above
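For phenotypic distance (Euclidean, principal components) from DMSO controls in this document: cell Painting imaging in 384-well plates, CellProfiler features reduced to at least 20 principal components, Euclidean distance versus same-plate DMSO vehicle wells (0.1% v/v), median over six images per well.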
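For surviving fraction (nuclei count normalised to DMSO) in this document: nuclei counted by high-content imaging of Hoechst-stained cells in laminin-coated 384-well plates, relative to 0.1% DMSO vehicle wells, with staurosporine as cell-death control.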

OC[C@H]1NC[C@H](O)[C@@H](O)[C@@H]1O [1-Deoxynojirimycin]
Details	phenotypic distance	surviving fraction
[1], 4.1 nM	–	1.02
[1], 12.3 nM	–	1.01
[1], 37 nM	–	1.009
[1], 111.1 nM	–	1.05
[1], 333.3 nM	–	1.04
[1], 1000 nM	–	0.997
[1], 3000 nM	–	1.02
[2], 4.1 nM	–	0.951
[2], 12.3 nM	–	0.95
[2], 37 nM	–	0.979
[2], 111.1 nM	–	0.918
[2], 333.3 nM	–	0.988
[2], 1000 nM	–	1.03
[2], 3000 nM	–	0.988
[3], 4.1 nM	–	0.97
[3], 12.3 nM	–	0.945
[3], 37 nM	–	0.8513
[3], 111.1 nM	–	0.99
[3], 333.3 nM	–	1.01
[3], 1000 nM	–	1.01
[3], 3000 nM	–	0.963
[4], 4.1 nM	–	0.994
[4], 12.3 nM	–	1.02
[4], 37 nM	–	0.9516
[4], 111.1 nM	–	0.977
[4], 333.3 nM	–	1.04
[4], 1000 nM	–	0.995
[4], 3000 nM	–	0.914
[5], 4.1 nM	–	0.965
[5], 12.3 nM	–	0.951
[5], 37 nM	–	0.953
[5], 111.1 nM	–	1.02
[5], 333.3 nM	–	0.889
[5], 1000 nM	–	1.04
[5], 3000 nM	–	0.9
[6], 4.1 nM	–	0.9939
[6], 12.3 nM	–	0.961
[6], 37 nM	–	0.936
[6], 111.1 nM	–	0.955
[6], 333.3 nM	–	1.03
[6], 1000 nM	–	0.978
[6], 3000 nM	–	0.9675
[7], 4.1 nM	–	1.02
[7], 12.3 nM	–	0.878
[7], 37 nM	–	0.9719
[7], 111.1 nM	–	0.948
[7], 333.3 nM	–	0.937
[7], 1000 nM	–	0.997
[7], 3000 nM	–	1.02
[8], 4.1 nM	1.27	–
[8], 12.3 nM	1.73	–
[8], 37 nM	0.489	–
[8], 111.1 nM	0.561	–
[8], 333.3 nM	0.769	–
[8], 1000 nM	0.642	–
[8], 3000 nM	0.664	–
[9], 4.1 nM	0.644	–
[9], 12.3 nM	0.558	–
[9], 37 nM	0.579	–
[9], 111.1 nM	0.597	–
[9], 333.3 nM	0.552	–
[9], 1000 nM	0.479	–
[9], 3000 nM	0.614	–
[10], 4.1 nM	0.633	–
[10], 12.3 nM	0.606	–
[10], 37 nM	0.865	–
[10], 111.1 nM	0.487	–
[10], 333.3 nM	0.742	–
[10], 1000 nM	0.501	–
[10], 3000 nM	0.63	–
[11], 4.1 nM	0.765	–
[11], 12.3 nM	0.361	–
[11], 37 nM	0.681	–
[11], 111.1 nM	0.62	–
[11], 333.3 nM	0.677	–
[11], 1000 nM	0.652	–
[11], 3000 nM	0.534	–
[12], 4.1 nM	0.939	–
[12], 12.3 nM	0.685	–
[12], 37 nM	0.554	–
[12], 111.1 nM	0.511	–
[12], 333.3 nM	0.634	–
[12], 1000 nM	0.682	–
[12], 3000 nM	0.673	–
[13], 4.1 nM	0.636	–
[13], 12.3 nM	0.609	–
[13], 37 nM	0.696	–
[13], 111.1 nM	0.505	–
[13], 333.3 nM	0.518	–
[13], 1000 nM	0.442	–
[13], 3000 nM	0.63	–
[14], 4.1 nM	1.35	–
[14], 12.3 nM	0.664	–
[14], 37 nM	0.60231	–
[14], 111.1 nM	0.433	–
[14], 333.3 nM	0.758	–
[14], 1000 nM	0.619	–
[14], 3000 nM	0.541	–

CC[C@]1(O)C[C@@H]2CN(CCc3c([nH]c4ccccc34)[C@@](C(=O)OC)(c3cc4c(cc3OC)N(C)[C@H]3[C@@](O)(C(=O)OC)[C@H](OC(C)=O)[C@]5(CC)C=CCN6CC[C@]43[C@@H]65)C2)C1 [Vinblastine sulfate]
Details	phenotypic distance	surviving fraction
[1], 4.1 nM	–	0.39
[1], 12.3 nM	–	0.297
[1], 37 nM	–	0.291
[1], 111.1 nM	–	0.236
[1], 333.3 nM	–	0.269
[1], 1000 nM	–	0.218
[1], 3000 nM	–	0.204
[2], 4.1 nM	–	0.0459
[2], 12.3 nM	–	0.0237
[2], 37 nM	–	0.0459
[2], 111.1 nM	–	0.0325
[2], 333.3 nM	–	0.0444
[2], 1000 nM	–	0.0237
[2], 3000 nM	–	0.0163
[3], 4.1 nM	–	0.22
[3], 12.3 nM	–	0.177
[3], 37 nM	–	0.175
[3], 111.1 nM	–	0.159
[3], 333.3 nM	–	0.171
[3], 1000 nM	–	0.162
[3], 3000 nM	–	0.194
[4], 4.1 nM	–	0.0927
[4], 12.3 nM	–	0.0948
[4], 37 nM	–	0.0937
[4], 111.1 nM	–	0.08
[4], 333.3 nM	–	0.0642
[4], 1000 nM	–	0.0421
[4], 3000 nM	–	0.0326
[5], 4.1 nM	–	0.427
[5], 12.3 nM	–	0.416
[5], 37 nM	–	0.414
[5], 111.1 nM	–	0.334
[5], 333.3 nM	–	0.372
[5], 1000 nM	–	0.388
[5], 3000 nM	–	0.353
[6], 4.1 nM	–	0.0751
[6], 12.3 nM	–	0.0815
[6], 37 nM	–	0.0676
[6], 111.1 nM	–	0.0629
[6], 333.3 nM	–	0.057
[6], 1000 nM	–	0.0602
[6], 3000 nM	–	0.057
[7], 4.1 nM	–	0.338
[7], 12.3 nM	–	0.282
[7], 37 nM	–	0.405
[7], 111.1 nM	–	0.322
[7], 333.3 nM	–	0.375
[7], 1000 nM	–	0.226
[7], 3000 nM	–	0.281
[8], 4.1 nM	3.12	–
[8], 12.3 nM	3.85	–
[8], 37 nM	4.99	–
[8], 111.1 nM	4.47	–
[8], 333.3 nM	5.63	–
[8], 1000 nM	6.15	–
[8], 3000 nM	6.57	–
[9], 4.1 nM	6.42	–
[9], 12.3 nM	12.9	–
[9], 37 nM	11.4	–
[9], 111.1 nM	10.7	–
[9], 333.3 nM	14.5	–
[9], 1000 nM	10.1	–
[9], 3000 nM	9.92	–
[10], 4.1 nM	7.96	–
[10], 12.3 nM	7.11	–
[10], 37 nM	8.76	–
[10], 111.1 nM	7.57	–
[10], 333.3 nM	9.22	–
[10], 1000 nM	8.93	–
[10], 3000 nM	9.73	–
[11], 4.1 nM	9.17	–
[11], 12.3 nM	9.98	–
[11], 37 nM	11.1	–
[11], 111.1 nM	9.54	–
[11], 333.3 nM	8.35	–
[11], 1000 nM	8.21	–
[11], 3000 nM	11	–
[12], 4.1 nM	3.93	–
[12], 12.3 nM	4.58	–
[12], 37 nM	4.48	–
[12], 111.1 nM	5.12	–
[12], 333.3 nM	6.19	–
[12], 1000 nM	5.04	–
[12], 3000 nM	5.6	–
[13], 4.1 nM	5.33	–
[13], 12.3 nM	5.47	–
[13], 37 nM	6.45	–
[13], 111.1 nM	5.46	–
[13], 333.3 nM	5.55	–
[13], 1000 nM	5.53	–
[13], 3000 nM	6.15	–
[14], 4.1 nM	7.02	–
[14], 12.3 nM	7.36	–
[14], 37 nM	6.67	–
[14], 111.1 nM	7.53	–
[14], 333.3 nM	8.9	–
[14], 1000 nM	8.95	–
[14], 3000 nM	8.01	–
